Our source for the MIC values is ChEMBL document CHEMBL5236651, “Synthesis and antibacterial activity of novel 2‑fluoro ketolide antibiotics with 11,12‑quinoylalkyl side chains” (2023).

Molecules are shown by their SMILES. In brackets after ≈: the same amount, converted by molar mass.

Holding throughout (assay type): functional
Experiment [1] relates to Klebsiella pneumoniae. In words: Antibacterial activity against ESBL positive Klebsiella pneumoniae ATCC 700603 assessed as inhibition of bacterial growth by CLSI based micro broth double dilution method.
Experiment [2] deals with Klebsiella pneumoniae. In words: Antibacterial activity against ESBL negative Klebsiella pneumoniae 7 assessed as inhibition of bacterial growth by CLSI based micro broth double dilution method.
For experiment [3], the system named is Klebsiella pneumoniae. In words: Antibacterial activity against ESBL negative Klebsiella pneumoniae 16-2 assessed as inhibition of bacterial growth by CLSI based micro broth double dilution method.
The test system of experiment [4] is Streptococcus pyogenes. In words: Antibacterial activity against erythromycin-sensitive Streptococcus pyogenes ATCC 19615 assessed as inhibition of bacterial growth by CLSI based micro broth double dilution method.
In experiment [5] the test system is Streptococcus pyogenes. In words: Antibacterial activity against erythromycin-resistant Streptococcus pyogenes 12-1 assessed as inhibition of bacterial growth by CLSI based micro broth double dilution method.
For experiment [6], the system named is Enterococcus faecalis. In words: Antibacterial activity against vancomycin-sensitive Enterococcus faecalis […] assessed as inhibition of bacterial growth by CLSI based micro broth double dilution method.
The test system of experiment [7] is Enterococcus faecalis. In words: Antibacterial activity against vancomycin-sensitive Enterococcus faecalis 16-6 assessed as inhibition of bacterial growth by CLSI based micro broth double dilution method.
The subject of experiment [8] is Enterococcus faecalis. In words: Antibacterial activity against vancomycin-resistant Enterococcus faecalis ATCC 51575 assessed as inhibition of bacterial growth by CLSI based micro broth double dilution method.
In experiment [9] the test system is Enterococcus faecalis. In words: Antibacterial activity against vancomycin-resistant Enterococcus faecalis ATCC 51299 assessed as inhibition of bacterial growth by CLSI based micro broth double dilution method.
Experiment [10] has as its system Streptococcus pneumoniae. In words: Antibacterial activity against erythromycin-sensitive Streptococcus pneumoniae ATCC 49619 assessed as inhibition of bacterial growth by CLSI based micro broth double dilution method.
The test system of experiment [11] is Streptococcus pneumoniae. In words: Antibacterial activity against erythromycin-resistant Streptococcus pneumoniae 12-3 assessed as inhibition of bacterial growth by CLSI based micro broth double dilution method.
In experiment [12] the test system is Escherichia coli. In words: Antibacterial activity against ESBL-negative Escherichia coli ATCC 25922 assessed as inhibition of bacterial growth by CLSI based micro broth double dilution method.
Experiment [13] deals with Escherichia coli. In words: Antibacterial activity against Escherichia coli 16-7 assessed as inhibition of bacterial growth by CLSI based micro broth double dilution method.
The test system of experiment [14] is Escherichia coli. In words: Antibacterial activity against ESBL-positive Escherichia coli ATCC 35218 assessed as inhibition of bacterial growth by CLSI based micro broth double dilution method.
For experiment [15], the system named is Staphylococcus epidermidis. In words: Antibacterial activity against methicillin-sensitive Staphylococcus epidermidis ATCC 12228 assessed as inhibition of bacterial growth by CLSI based micro broth double dilution method.
Experiment [16] relates to Staphylococcus epidermidis. In words: Antibacterial activity against methicillin-sensitive Staphylococcus epidermidis 16-4 assessed as inhibition of bacterial growth by CLSI based micro broth double dilution method.
In experiment [17] the test system is Staphylococcus aureus. In words: Antibacterial activity against methicillin-sensitive Staphylococcus aureus ATCC 29213 assessed as inhibition of bacterial growth by CLSI based micro broth double dilution method.
The subject of experiment [18] is Staphylococcus aureus. In words: Antibacterial activity against methicillin-sensitive Staphylococcus aureus 15 assessed as inhibition of bacterial growth by CLSI based micro broth double dilution method.
Experiment [19] concerns Staphylococcus aureus. In words: Antibacterial activity against methicillin-sensitive Staphylococcus aureus 16-1 assessed as inhibition of bacterial growth by CLSI based micro broth double dilution method.
Experiment [20] concerns Pseudomonas aeruginosa. In words: Antibacterial activity against Pseudomonas aeruginosa ATCC 27853 assessed as inhibition of bacterial growth by CLSI based micro broth double dilution method.
Experiment [21] concerns Pseudomonas aeruginosa. In words: Antibacterial activity against Pseudomonas aeruginosa PAO1 assessed as inhibition of bacterial growth by CLSI based micro broth double dilution method.
Experiment [22] deals with Pseudomonas aeruginosa. In words: Antibacterial activity against Pseudomonas aeruginosa 16-11 assessed as inhibition of bacterial growth by CLSI based micro broth double dilution method.

Usually MIC stands for the smallest concentration in the dilution series that meets the test's criterion for growth inhibition. In the case of `CC[C@H]1OC(=O)[C@@](C)(F)C(=O)[C@H](C)[C@@H](O[C@@H]2O[C@H](C)C[C@H](N(C)C)[C@H]2O)[C@@](C)(OC)C[C@@H](C)C(=O)[C@H](C)[C@H]2N(CCCN(Cc3ccccc3)c3ccnc4ccccc34)C(=O)O[C@]12C`, the MIC was greater than 32 µg/mL in the experiment with Klebsiella pneumoniae [1]; greater than 32 µg/mL in the experiment on Klebsiella pneumoniae [2]; greater than 32 µg/mL in the experiment on Klebsiella pneumoniae [3]; 0.25 µg/mL (≈ 0.276 µM) in the experiment on Streptococcus pyogenes [4]; 16 µg/mL (≈ 17.7 µM) with Streptococcus pyogenes [5]; 2 µg/mL (≈ 2.21 µM) in the experiment with Enterococcus faecalis [6]. The MIC in the experiment with Enterococcus faecalis [7] was greater than 32 µg/mL; with Enterococcus faecalis [8], greater than 32 µg/mL; in the experiment with Enterococcus faecalis [9], greater than 32 µg/mL; in the experiment on Streptococcus pneumoniae [10], no more than 0.016 µg/mL; in the experiment on Streptococcus pneumoniae [11] it was 0.12 µg/mL (≈ 0.133 µM); in the experiment on Escherichia coli [12] it was greater than 32 µg/mL. Besides, the MIC in the experiment on Escherichia coli [13] is greater than 32 µg/mL; in the experiment on Escherichia coli [14], greater than 32 µg/mL; in [15] it was 0.25 µg/mL (≈ 0.276 µM); in experiment [16], 2 µg/mL (≈ 2.21 µM); in the experiment with Staphylococcus aureus [17] it was 1 µg/mL (≈ 1.1 µM); in the experiment with Staphylococcus aureus [18], 1 µg/mL (≈ 1.1 µM). Moreover, the MIC was 1 µg/mL (≈ 1.1 µM) in the experiment with Staphylococcus aureus [19], greater than 32 µg/mL in the experiment on Pseudomonas aeruginosa [20], greater than 32 µg/mL in the experiment on Pseudomonas aeruginosa [21] and greater than 32 µg/mL in the experiment on Pseudomonas aeruginosa [22].
For `CC[C@H]1OC(=O)[C@H](C)C(=O)[C@H](C)[C@@H](O[C@@H]2O[C@H](C)C[C@H](N(C)C)[C@H]2O)[C@](C)(OC)C[C@@H](C)C(=O)[C@H](C)[C@H]2N(CCCCn3cnc(-c4cccnc4)c3)C(=O)O[C@]12C` [TELITHROMYCIN], the MIC in the experiment with Klebsiella pneumoniae [1] was greater than 64 µg/mL; in the experiment with Klebsiella pneumoniae [2], greater than 64 µg/mL; in the experiment with Klebsiella pneumoniae [3], greater than 64 µg/mL; with Streptococcus pyogenes [4] it was 0.06 µg/mL (≈ 0.0739 µM); in the experiment with Streptococcus pyogenes [5], 64 µg/mL (≈ 78.8 µM); in the experiment on Enterococcus faecalis [6], 0.12 µg/mL (≈ 0.148 µM). Besides, the minimal inhibitory concentration (MIC) with Enterococcus faecalis [7] was 16 µg/mL (≈ 19.7 µM); in the experiment on Enterococcus faecalis [8], 16 µg/mL (≈ 19.7 µM); in the experiment on Enterococcus faecalis [9], 16 µg/mL (≈ 19.7 µM); in the experiment with Streptococcus pneumoniae [10] it was 0.03 µg/mL (≈ 0.0369 µM); in the experiment on Streptococcus pneumoniae [11], 0.06 µg/mL (≈ 0.0739 µM); with Escherichia coli [12], 64 µg/mL (≈ 78.8 µM). For the same molecule, the MIC in the experiment with Escherichia coli [13] is greater than 64 µg/mL; with Escherichia coli [14], greater than 64 µg/mL; in experiment [15], 0.25 µg/mL (≈ 0.308 µM); in [16] it was 1 µg/mL (≈ 1.23 µM); with Staphylococcus aureus [17], 0.25 µg/mL (≈ 0.308 µM); in the experiment on Staphylococcus aureus [18], 0.25 µg/mL (≈ 0.308 µM). Besides, the MIC in the experiment with Staphylococcus aureus [19] was 0.25 µg/mL (≈ 0.308 µM); with Pseudomonas aeruginosa [20] it was greater than 64 µg/mL; in the experiment on Pseudomonas aeruginosa [21] it was greater than 64 µg/mL; with Pseudomonas aeruginosa [22], greater than 64 µg/mL.
`CC[C@H]1OC(=O)[C@@](C)(F)C(=O)[C@H](C)[C@@H](O[C@@H]2O[C@H](C)C[C@H](N(C)C)[C@H]2O)[C@@](C)(OC)C[C@@H](C)C(=O)[C@H](C)[C@H]2N(CCCOc3ccnc4ccccc34)C(=O)O[C@]12C`: the minimum inhibitory concentration (MIC) in the experiment on Klebsiella pneumoniae [1] was greater than 32 µg/mL; with Klebsiella pneumoniae [2], greater than 32 µg/mL; in the experiment on Klebsiella pneumoniae [3], greater than 32 µg/mL; in the experiment on Streptococcus pyogenes [4], 0.25 µg/mL (≈ 0.306 µM); with Streptococcus pyogenes [5], 16 µg/mL (≈ 19.6 µM); in the experiment with Enterococcus faecalis [6], 0.5 µg/mL (≈ 0.613 µM). Also, the minimum inhibitory concentration (MIC) is greater than 32 µg/mL in the experiment with Enterococcus faecalis [7]; greater than 32 µg/mL in the experiment on Enterococcus faecalis [8]; greater than 32 µg/mL with Enterococcus faecalis [9]; 0.25 µg/mL (≈ 0.306 µM) in the experiment on Streptococcus pneumoniae [10]; 32 µg/mL (≈ 39.2 µM) in the experiment on Streptococcus pneumoniae [11]; greater than 32 µg/mL in the experiment with Escherichia coli [12]. The MIC in the experiment on Escherichia coli [13] was greater than 32 µg/mL; in the experiment on Escherichia coli [14], greater than 32 µg/mL; in experiment [15], 0.5 µg/mL (≈ 0.613 µM); in experiment [16], 1 µg/mL (≈ 1.23 µM); with Staphylococcus aureus [17] it was 1 µg/mL (≈ 1.23 µM); in the experiment on Staphylococcus aureus [18], 1 µg/mL (≈ 1.23 µM). Besides, the MIC with Staphylococcus aureus [19] is 0.5 µg/mL (≈ 0.613 µM); in the experiment with Pseudomonas aeruginosa [20] it was greater than 32 µg/mL; in the experiment on Pseudomonas aeruginosa [21], greater than 32 µg/mL; with Pseudomonas aeruginosa [22], greater than 32 µg/mL.
As for `CC[C@H]1OC(=O)[C@@](C)(F)C(=O)[C@H](C)[C@@H](O[C@@H]2O[C@H](C)C[C@H](N(C)C)[C@H]2O)[C@@](C)(OC)C[C@@H](C)C(=O)[C@H](C)[C@H]2N(CCCN(C(=O)c3ccccc3)c3ccnc4ccccc34)C(=O)O[C@]12C`, the MIC with Klebsiella pneumoniae [1] was greater than 32 µg/mL; in the experiment on Klebsiella pneumoniae [2], greater than 32 µg/mL; in the experiment on Klebsiella pneumoniae [3], greater than 32 µg/mL; in the experiment on Streptococcus pyogenes [4], 0.12 µg/mL (≈ 0.131 µM); with Streptococcus pyogenes [5], greater than 32 µg/mL; in the experiment with Enterococcus faecalis [6], 0.25 µg/mL (≈ 0.272 µM). Further, the MIC in the experiment with Enterococcus faecalis [7] is greater than 32 µg/mL; in the experiment on Enterococcus faecalis [8], greater than 32 µg/mL; with Enterococcus faecalis [9] it was greater than 32 µg/mL; in the experiment with Streptococcus pneumoniae [10], no more than 0.016 µg/mL; in the experiment on Streptococcus pneumoniae [11], 0.06 µg/mL (≈ 0.0653 µM); in the experiment on Escherichia coli [12], greater than 32 µg/mL. Further, the MIC in the experiment with Escherichia coli [13] is greater than 32 µg/mL; in the experiment on Escherichia coli [14], greater than 32 µg/mL; in [15], 1 µg/mL (≈ 1.09 µM); in experiment [16], 1 µg/mL (≈ 1.09 µM); with Staphylococcus aureus [17], 1 µg/mL (≈ 1.09 µM); with Staphylococcus aureus [18] it was 1 µg/mL (≈ 1.09 µM). For the same molecule, the MIC in the experiment with Staphylococcus aureus [19] is 0.5 µg/mL (≈ 0.544 µM); with Pseudomonas aeruginosa [20], greater than 32 µg/mL; with Pseudomonas aeruginosa [21], greater than 32 µg/mL; in the experiment on Pseudomonas aeruginosa [22] it was greater than 32 µg/mL.
